# Results taken from patent US8378100B2, “Phosphonate derivatives as autotaxin inhibitors” (University of Virginia Patent Foundation, priority 2008, dated 2013).
# Molecular target: recombinant human ATX (Homo sapiens, UniProt Q13822)
# Assay: Choline detection assay for ATX
# Type: biochemical
# Settings: activity without test compound = 100%; for ATX activity (%) 1 μM: 1 μM test compound; for ATX activity (%) 10 μM: 10 μM test compound; for ATX activity (%) 100 μM: 100 μM test compound
# Description: The phosphonate derivatives were tested in choline detection assay for ATX inhibition. The ATX activity assay was conducted in 0.1 ml, buffer: (in mM: Tris-HCl 100, pH9, NaCl 150, MgCl2 5, CoSO4 0.03, 0.05% Triton X-100), 1 mM 18:1 LPC, using recombinant human ATX with or without test compounds; incubation was for 16 hours at 37° C. The released choline was detected as follows: Samples were mixed with 0.15 ml of 50 mM TrisHCl containing 2.7 mM TOOS(N-ethyl-N-2-hydroxy-3-sulfopropyl)-m-toluidine, 2.7 mM 4-AAP (4-aminoantipyrine), 47.7 U/ml horseradish peroxidase, 18 U/ml choline oxidase, and 5 mM MgCl2. After 30 min incubation at 37° C., light absorbance (550 nm) was determined, and the amount of choline release was calculated from a standard curve.
# The ATX activity was measured in the presence of the test compounds under different concentrations (100 μM, 10 μM and 1 μM). The ATX activity without TEST compounds was used as the standard (100% activity). Some β-hydroxy phosphonate derivatives inhibited ATX activity at only the highest concentration tested. […] These two compounds were synthesized from protected L-tyrosine and they are diastereomers. The less polar isomer, f17, (also known as VPC8a202) was able to inhibit 73% of ATX activity at 1 μM.
# [1] = table of g1-g15 (β-keto phosphonates)
SMILES,ATX activity (%) 10 μM [1],ATX activity (%) 100 μM [1],ATX activity (%) 1 μM [1],further results
"CCCCCCCCCCCCCCCCCC(=O)N[C@@H](Cc1ccc(OCc2ncc(C)c(OC)c2C)cc1)C(O)CP(=O)(O)O (single isomer, unassigned) [f39]",–,–,–,"ATX activity (%) 1 μM (Table 2 (f35-f44)): 101%; ATX activity (%) 10 μM (Table 2 (f35-f44), 10 µM): 91%; ATX activity (%) 100 μM (Table 2 (f35-f44), 100 µM): 81%"
"CCCCCCCCCCCCCCCCCC(=O)N[C@@H](Cc1ccc(OCc2ncc(C)c(OC)c2C)cc1)C(O)CP(=O)(O)O (single isomer, unassigned) [f40]",–,–,–,"ATX activity (%) 10 μM (Table 2 (f35-f44), 10 µM): 90%; ATX activity (%) 100 μM (Table 2 (f35-f44), 100 µM): 62%"
"CCCCCCCC/C=C\CCCCCCCC(=O)N[C@@H](Cc1ccc(OCc2ncc(C)c(OC)c2C)cc1)C(O)CP(=O)(O)O (single isomer, unassigned) [f41]",–,–,–,"ATX activity (%) 10 μM (Table 2 (f35-f44), 10 µM): 45%; ATX activity (%) 100 μM (Table 2 (f35-f44), 100 µM): 15%"
"CCCCCCCC/C=C\CCCCCCCC(=O)N[C@@H](Cc1ccc(OCc2ncc(C)c(OC)c2C)cc1)C(O)CP(=O)(O)O (single isomer, unassigned) [f42]",–,–,–,"ATX activity (%) 1 μM (Table 2 (f35-f44)): 77%; ATX activity (%) 10 μM (Table 2 (f35-f44), 10 µM): 68%; ATX activity (%) 100 μM (Table 2 (f35-f44), 100 µM): 58%"
"CCCCCCCCCCCCCCCCCCCC(=O)NC(Cc1ccc(OCc2ncc(C)c(OC)c2C)cc1)C(O)CP(=O)(O)O (single isomer, unassigned) [f43]",–,–,–,ATX activity (%) 1 μM (Table 2 (f35-f44)): 64%; ATX activity (%) 10 μM (Table 2 (f35-f44)): 45%; ATX activity (%) 100 μM (Table 2 (f35-f44)): 10%
CCCCCCCCCCCCCCCC(=O)N[C@H](Cc1ccc(OCc2ccccc2)cc1)C(=O)CP(=O)(O)O [g3],82%,76%,–,–
CCCCCCCCCCCCCCCC(=O)N[C@@H](Cc1ccc(OCc2ccccc2)cc1)C(=O)CP(=O)(O)O [g4],71%,61%,–,–
CCCCCCCCCCCCCCCC(=O)N[C@@H](Cc1ccc(OCc2ncc(C)c(OC)c2C)cc1)C(=O)CP(=O)(O)O [g7],74%,26%,71%,–
CCCCCCCCCCCCCCCC(=O)N[C@H](Cc1ccc(OC)cc1)C(=O)CP(=O)(O)O [g8],71%,32%,84%,–
CCCCCCCCCCCCCCCC(=O)N[C@@H](Cc1ccc(OC)cc1)C(=O)CP(=O)(O)O [g9],68%,45%,96%,–
CCCCCCCCCCCCCCCC(=O)N[C@H](Cc1ccc(OCCC)cc1)C(=O)CP(=O)(O)O [g10],97%,75%,104%,–
CCCCCCCCCCCCCCCC(=O)N[C@@H](Cc1ccc(OCCC)cc1)C(=O)CP(=O)(O)O [g11],97%,72%,–,–
CCCCCCCCCCCCCCCC(=O)N[C@H](Cc1ccc(OCCCCC)cc1)C(=O)CP(=O)(O)O [g12],84%,–,93%,–
CCCCCCCCCCCCCCCC(=O)N[C@@H](Cc1ccc(OCCCCC)cc1)C(=O)CP(=O)(O)O [g13],83%,–,95%,–
